Laboratory results reported in a melting point compilation (Tetko et al.; mined from patent text by program, amines drawn as free bases though some values may be those of a salt).

Which melting point does the source give for `CCOCc1nc2c(N)nc3cc(-c4cccnc4)ccc3c2n1Cc1ccc(CNC(=O)OC(C)(C)C)cc1` here?
The melting point was 196 to 197 °C.

With `O=[N+]([O-])c1ccc(-c2nc(-c3ccco3)no2)cc1` as the molecule, how does the melting point read?
The melting point was 168 to 170 °C.

Which melting point does the source give for `O=C(CCCO)c1cccnc1` here?
The melting point was 36 to 37 °C.

With `O=C(CC(Cc1ccccc1)C(=O)O)c1cccc(Cl)c1` (stereo not drawn) as the molecule, how does the melting point read?
The melting point was 85 to 89 °C.

Which melting point does the source give for `Cn1cc(C2=C(c3c4n(c5ccccc35)CCCC(CNC(N)=N[N+](=O)[O-])C4)C(=O)NC2=O)c2ccccc21` (stereo not drawn) here?
Its melting point is 177 to 178 °C.

For `Cc1ccc(-c2ccc(C)cc2[N+](=O)[O-])c([N+](=O)[O-])c1`, which melting point is on record?
The melting point was 138 to 141 °C.

Which melting point does the source give for `COc1cc(Nc2c(C#N)cnc3cc(-c4ccc5ccccc5c4)ccc23)c(Cl)cc1Cl` here?
The melting point was 243 to 244 °C.

Which melting point does the source give for `Clc1ccc(-c2ncc(C#Cc3ccccc3)s2)cc1` here?
Its melting point is 108 to 110 °C.

Which melting point does the source give for `COC(=O)NNC(=O)CCC1CCCCC1` here?
Its melting point is 113 °C.

Which melting point does the source give for `CC1=CC(OC(=O)c2ccc(O)cc2)C(O)C(C)(C)CC1=O` (stereo not drawn) here?
The melting point was 123 to 125 °C.

With `CC(=O)Nc1nc(N(C(C)=O)C(C)=O)c(CCC=O)c(=O)[nH]1` as the molecule, how does the melting point read?
The melting point was 164 to 168 °C.

For `COc1cc(C(O)CCCc2ccccc2)ccc1OCc1ccccc1` (stereo not drawn), which melting point is on record?
Its melting point is 71 to 73 °C.

For `NSc1nc(N)nc2c1ncn2C1OC(CO)C(O)C1O` (stereo not drawn), which melting point is on record?
The melting point was 190 to 192 °C.

With `CC(=O)NC[C@H]1CN(c2ccc(-n3ccnn3)c(F)c2)C(=O)O1` as the molecule, how does the melting point read?
The melting point was 193 to 194 °C.

With `C#CCCCCNC(=O)c1cnc(OCC(O)CNC(C)(C)C)s1` (stereo not drawn) as the molecule, how does the melting point read?
Its melting point is 140 to 148 °C.

For `CCc1ccc2c(=O)c(CO)cn(C)c2c1`, which melting point is on record?
Its melting point is 147 to 148 °C.

With `O=Cc1cccc(/C=C/c2nc3cc(F)ccc3s2)c1` as the molecule, how does the melting point read?
The melting point was 151 to 152 °C.

Which melting point does the source give for `O=Cc1ccc2c(c1)N(C1CCN(CCc3ccccc3F)CC1)CC2` here?
The melting point was 86 to 87 °C.

With `COc1c(NC(=O)c2ccc(-c3ccncc3)cc2)cccc1N1CCN(C)CC1` as the molecule, how does the melting point read?
The melting point was 153 to 155 °C.

Which melting point does the source give for `O=C(N[C@H](Cc1ccccc1)C(=O)O)OCc1ccc2oc(-c3ccccc3)nc2c1` here?
The melting point was 220 to 221 °C.

For `CCOC(=O)c1ccc(-c2cc3c(N[C@H](C)c4ccccc4)ncnc3[nH]2)cc1`, which melting point is on record?
The melting point was 288 to 290 °C.

For `COC(=O)c1ccc(CC(C)NCC(O)c2cc(Cl)c(N)c(Cl)c2)cc1` (stereo not drawn), which melting point is on record?
The melting point was 97 to 115 °C.

With `Cc1c(NCC2CCCCO2)cc2oc(=O)[nH]c2c1F` (stereo not drawn) as the molecule, how does the melting point read?
Its melting point is 166 °C.

Which melting point does the source give for `C=CC(=O)NC(C(=O)OCC)C(=O)OCC` here?
The melting point was 105 to 106 °C.

For `CCOC(=O)CCCc1ccc(N[C@@H](CCC(N)=O)C(=O)O)cc1`, which melting point is on record?
The melting point was 179 to 180 °C.

With `CCOC(=O)C1CCN(C(=O)OCC)c2ccccc2C1O` (stereo not drawn) as the molecule, how does the melting point read?
The melting point was 93 °C.

With `Nc1cc(Cl)cnc1Oc1ccc(O)cc1` as the molecule, how does the melting point read?
Its melting point is 174 °C.

Which melting point does the source give for `CC(=O)c1ccc(-c2ccc(Br)cc2)c(F)c1` here?
Its melting point is 89 to 91 °C.

For `CNc1nc(CO)c(-c2ccncc2)s1`, which melting point is on record?
Its melting point is 216 to 218 °C.

With `Cc1cc(C2(C(F)(F)F)CC(c3ccc(F)cc3)=NO2)ccc1N1C(=O)c2cccc([N+](=O)[O-])c2C1=O` (stereo not drawn) as the molecule, how does the melting point read?
Its melting point is 221 to 222 °C.

With `CC(=O)OCC1OC(n2c3ncccc3c3c4c(n5cncc5c32)C(=O)N(C)C4=O)C(OC(C)=O)C(OC(C)=O)C1OC(C)=O` (stereo not drawn) as the molecule, how does the melting point read?
The melting point was 204 °C.

For `CC(C)Oc1ccc(-c2nc(=O)c3ccccc3s2)cn1`, which melting point is on record?
The melting point was 110 °C.

Which melting point does the source give for `Cc1ccn(-c2ccc(S(C)(=O)=O)cc2)c1-c1ccc(OC(F)F)cc1` here?
Its melting point is 98 to 99 °C.

Which melting point does the source give for `CC(C)(C)c1cc(Oc2ccc(Br)cc2)cc(C(C)(C)C)c1` here?
The melting point was 98 to 100 °C.

For `O=C(O)CCCC(=O)ON1C(=O)CCC1=O`, which melting point is on record?
The melting point was 81 to 83 °C.

Which melting point does the source give for `C[C@@H](O[C@H]1CCCN(Cc2n[nH]c(=O)[nH]2)[C@H]1c1ccccc1)c1cccc(Br)c1` here?
Its melting point is 165 °C.

For `COC(=O)c1nn(-c2ccccc2)c(=O)c2c1c1cc(Cl)ccc1n2C`, which melting point is on record?
Its melting point is 265 to 266 °C.

For `O=c1nc(-c2cccc(SCc3ccccc3)n2)sc2ccccc12`, which melting point is on record?
The melting point was 227 to 228 °C.

With `CCCCOC(=O)c1cc(Cl)ccc1N` as the molecule, how does the melting point read?
The melting point was 37 to 39 °C.

Which melting point does the source give for `Cc1cc(C(=O)NC2CCCCC2)ccc1[N+](=O)[O-]` here?
Its melting point is 134 to 141 °C.

Which melting point does the source give for `O=C(CCCNC(=O)C(=O)c1cn2c3c(cccc13)CCC2)NOCc1ccccc1` here?
Its melting point is 88 to 90 °C.

For `CN1C[C@@H]2C[C@H]1CN2c1cc2c(cc1F)c(=O)c(C=O)cn2C1CC1`, which melting point is on record?
The melting point was 274 to 275 °C.

With `CS(=O)(=O)N(C(=O)OCc1ccccc1)c1cc(OC[C@@H]2CO2)ccc1OCc1ccccc1` as the molecule, how does the melting point read?
Its melting point is 78 to 80 °C.

With `CN1C(c2ccc(Br)cc2)C2C(=O)N(Cc3ccc4c(c3)OCO4)C(O)C2C1(C)C` (stereo not drawn) as the molecule, how does the melting point read?
Its melting point is 158 to 159 °C.

With `CC(=O)c1cc2c(Br)ccc(OC(C)c3ccccc3)c2o1` (stereo not drawn) as the molecule, how does the melting point read?
Its melting point is 129 to 132 °C.

Which melting point does the source give for `COC(=O)c1ccccc1S(=O)(=O)NC(=O)Nc1ncc(Cl)cn1` here?
The melting point was 217 to 221 °C.

With `CN1C(=O)C(c2ccc(OC(F)F)cc2)(c2ccc(F)c(OCCC=C(F)F)c2)N=C1N` (stereo not drawn) as the molecule, how does the melting point read?
Its melting point is 139 to 140 °C.

For `CSSc1ccc([N+](=O)[O-])cc1`, which melting point is on record?
The melting point was 42.9 to 44.3 °C.

With `CCOC(=O)C(C)(C)NC(=O)c1nnc2ccc(NCCCN3CCC(OC(c4ccccc4)c4ccccc4)CC3)nn12` as the molecule, how does the melting point read?
Its melting point is 165 to 167 °C.

With `COc1ccc([N+](=O)[O-])c(Nc2cccc(O)c2)n1` as the molecule, how does the melting point read?
Its melting point is 156 to 158 °C.

For `Cc1ccc(S(=O)(=O)C2=CC3CCC2N3C(=O)OC(C)(C)C)cc1` (stereo not drawn), which melting point is on record?
Its melting point is 144 to 147 °C.

For `CCN(CC)CCOc1ccc(Nc2ncc3c(=O)n(Cc4ccc(OC)cc4)c(=O)n(C(C)C)c3n2)cc1`, which melting point is on record?
The melting point was 139 to 141 °C.

For `COC(=O)c1cc(-c2ccc(-c3nccs3)cc2)n(-c2ccc(S(N)(=O)=O)cc2)n1`, which melting point is on record?
Its melting point is 204 to 206 °C.

Which melting point does the source give for `Cc1c(-c2ccc([N+](=O)[O-])o2)nc(N)n2c(C)nnc12` here?
Its melting point is 290 °C.

Which melting point does the source give for `c1ccc(COc2cnc(N3CCNCC3)nc2)cc1` here?
Its melting point is 94 to 97 °C.

With `ONC(=S)CCc1ccc(F)cc1` as the molecule, how does the melting point read?
Its melting point is 115 to 116 °C.

Which melting point does the source give for `O=Cn1cc(Cl)c(-c2ccccc2C(F)(F)F)c1` here?
The melting point was 75 to 78 °C.

With `O=C(Nc1ccc(Cl)cc1)NC1N=C(c2ccccc2)c2ccccc2N(CC(=O)N2CCCC2)C1=O` (stereo not drawn) as the molecule, how does the melting point read?
Its melting point is 264 to 266 °C.

Which melting point does the source give for `CCCNC(=O)N1N=C(c2ccc([N+](=O)[O-])cc2)c2cc(Cl)ccc2CC1C` (stereo not drawn) here?
Its melting point is 186 to 187 °C.

Which melting point does the source give for `CC(C)(C)C(=O)c1c[nH]nc1N` here?
The melting point was 159 to 160 °C.

With `CCCc1c(OCCCCCOc2ccccc2/C=C/C(=O)O)ccc2c1OCCC2=O` as the molecule, how does the melting point read?
The melting point was 123 to 126 °C.

For `C#CCNC(=NCCSCc1nccs1)NC#N`, which melting point is on record?
Its melting point is 138 to 140 °C.

With `C[C@]1(CN2CCN(C(=O)c3ccc(Cl)cc3)CC2)Cn2cc([N+](=O)[O-])nc2O1` as the molecule, how does the melting point read?
Its melting point is 173 to 174 °C.

Which melting point does the source give for `NCCCP(=O)(O)C1SCCS1` here?
Its melting point is 272 to 274 °C.

Which melting point does the source give for `CSCC[C@@H]1C(=O)N(C)[C@H]([C@H](C)c2cccc3ccccc23)C(=O)N1C` here?
The melting point was 88 to 90 °C.

With `S=C(NCCc1ccccn1)NN=C(CCCCl)c1ccccc1` as the molecule, how does the melting point read?
The melting point was 126 to 129 °C.

For `C[Si](C)(C)c1cc(O)c([Si](C)(C)C)cc1O`, which melting point is on record?
Its melting point is 162 °C.

For `COc1ccc(C2(C(C)NCc3ccncc3)CCC2)cc1` (stereo not drawn), which melting point is on record?
Its melting point is 110 to 113 °C.

Which melting point does the source give for `NC(=O)CNC(=O)c1cccc(-c2ccc3c(c2)C(Oc2ccc(Cl)cc2Cl)CC3)c1` (stereo not drawn) here?
The melting point was 180 to 181 °C.

For `CN(C(=O)Cc1cccc2ccccc12)C1c2ccccc2CCC1N1CCCC1` (stereo not drawn), which melting point is on record?
The melting point was 125 °C.

Which melting point does the source give for `N#CSCCNc1ccc([N+](=O)[O-])cc1Cl` here?
The melting point was 148 to 150 °C.

With `CC(C)(C)c1ccc2c(c1)Cc1cc(C(C)(C)C)ccc1S2` as the molecule, how does the melting point read?
The melting point was 152 to 154 °C.

For `CCOc1ccc(N)nc1C`, which melting point is on record?
The melting point was 93 to 96 °C.
